The results in this text go back to patent US20250332167A1, “PHARMACEUTICAL USE OF CDK 4/6 INHIBITOR” (priority 2021, published 2025).

The structures appear in SMILES notation. Several values for one entry are separate records, joined by “and”; a condition that tells them apart may be missing. Identical values can stand only once.

One series deals with NCI-H1975 xenograft. The series is described as follows: Human non-small cell lung cancer NCI-H1975 xenograft mouse model. The conditions noted are these: 25 mg/kg oral gavage once daily. The format is in vivo, Balb/c nude mice. The text has this:
(§1) The formula for calculating tumor volume was: Tumor Volume (mm^3)=½×(a×b^2) (where “a” represents the long diameter and “b” represents the short diameter).
(§2) The relative tumor growth rate (T/C) is the percentage value of the relative tumor volume or weight between the treatment group and the control group at a certain time point. The calculation formula is as follows: • T/C(%)=TRTV/CRTV×100% (TRTV: Average RTV of the treatment group; CRTV: Average RTV of the Vehicle group; RTV=Vt/V0, where V0 is the tumor volume of the animal at the time of grouping and Vt is the tumor volume of the animal after treatment).
(§3) (T and C are the relative tumor volume (RTV) or weight (TW) of the treatment group and control group at a specific time point, respectively).
NCI-H1975 cells were cultured in RPMI1640 medium containing 10% fetal bovine serum. Log-phase NCI-H1975 cells were collected, suspended in PBS to an appropriate concentration, and used for subcutaneous tumor implantation in Balb/c nude mice. Each female mouse was implanted with 0.1 ml of NCI-H1975 cells subcutaneously. When the average tumor volume reached 171 mm^3, the mice were randomly divided into groups based on tumor size.
The positive control drugs were Palbociclib and Abemaciclib.
Each group consisted of 8 mice, and oral gavage administration was performed once daily for a total of 21 days. Tumor volume and body weight changes were observed regularly, and efficacy evaluation was conducted based on relative tumor proliferation rate (T/C) and relative tumor growth inhibition rate (TGI). The calculation methods for tumor volume, T/C, and TGI are described in Example 3.
A general note: In xenograft studies the graft and the host belong to different species.

Series [1] relates to Human glioblastoma model (BN2289). The series is described as follows: Human glioblastoma xenograft mouse model (BN2289). The format is in vivo, BALB/C nude mice. To be noted: 25 mg/kg oral gavage once daily, day 21.
Excerpt: Human glioblastoma model (BN2289, Crown Bioscience Co., Ltd.) tumor fragments were cut into small pieces with a diameter of 2-3 mm and subcutaneously inoculated into the right side of BALB/C nude mice. Tumor growth was monitored regularly, and when the tumors grew to an average volume of approximately 100-200 mm^3, mice were randomly divided into groups based on the tumor size.
Each group consisted of 8 mice and received oral gavage administration once daily for a total of 28 days. Regular observations were made on tumor volume and changes in body weight. Efficacy evaluation was conducted based on the relative tumor growth rate (T/C) and the relative tumor inhibition rate (TGI).
as §1, §2, §3

The subject of the next series is SNU-761. Kind of series: Proliferation inhibition, non-small cell lung cancer cell line SNU-761. The format is cell-based. To be noted: Homo sapiens; SNU-761, 72 h. The method, then: (§4) Sixteen non-small cell lung cancer cell lines, including NCI-H1792, NCI-H1703, NCI-H441, SNU-761, NCI-H1975, NCI-H358, NCI-H1838, NCI-H1915, A549, SK-MES-1, NCI-H292, PC-9, NCI-H460, NCI-H23, NCI-H1581, and HLF, were used for the proliferation inhibition assay of the present invention compound. […] The cell detection equipment used was In Cell Analyzer 2200 (GE Healthcare).
(§5) With 60 μM as the initial concentration, ten points were obtained by serial five-fold dilution.
(§6) Each kind of cell in logarithmic growth phase was inoculated with 4000 cells/100 μl/well into a black transparent bottom 96-well plate and cultured overnight at 37° C. The next day, the plate was taken out, and 20 μL of the prepared sample dilutions was added to each well. The plate was then subjected to treatment at 37° C. for 72 hours. After the treatment period of 72 hours, the plate was taken out and 50 μL of neutral formaldehyde fixative (formaldehyde: PBS=1:9, 50 μl/well) was added to each well. The plate was then fixed at room temperature for 10-30 minutes. Subsequently, the wells were washed twice with 1× PBS (100 μl/well) and treated with 0.2% Triton™-X100 for 5-10 minutes to permeabilize the cells. […] The inhibitory rates of each compound at different concentration points were calculated by using the following formula, and IC50 values were obtained through curve fitting using GraphPad Prism 6.0 software.

A further series concerns U118MG cells. The series is described as follows: Proliferation inhibition of human glioblastoma cells U118MG (DAPI cell count, 72 h). The format is cell-based. To be noted: U-118-MG, 72 h treatment. The method, then:
Human glioblastoma cell U118MG was purchased from NANJING COBIOER BIOSCIENCES CO., LTD. […] The cell detection equipment used was the In Cell Analyzer 2200 (GE Healthcare).
as §5
Medium for U118 MG is the MEM (low glucose) medium supplemented with 10% FBS, 1% penicillin/streptomycin, 1% sodium pyruvate, and 1% MEM NEAA. U118 MG cells were seeded at a density of 4000 cells/100 μL/well in a 96-well black clear-bottom plate and incubated at 37° C. overnight. The plate was then taken, and 20 μL of the prepared diluted samples was added to the wells. The cells were treated at 37° C. for 72 hours. After 72 hours, the plate was taken, and a neutral formaldehyde fixation solution (formaldehyde:PBS=1:9) was added at 50 μL/well. The cells were fixed at room temperature for 10-30 minutes. The wells were washed twice with 1× PBS (100 μL/well), and then permeabilized with 0.2% Triton™-X100 for 5-10 minutes (100 μL/well). […] The plate was scanned by using an In Cell Analyzer, and the number of cells in each well was analyzed. The inhibition rate of each compound at various concentration points was calculated by using the formula provided. The IC50 values were determined by curve fitting using GraphPad Prism 6.0 software.

The test system of the next series is NCI-H358. Kind of series: Proliferation inhibition, non-small cell lung cancer cell line NCI-H358. The format is cell-based. The conditions noted are these: Homo sapiens, NCI-H358, 72 h. The method, then:
as §4, §5, §6

A further series has as its system NCI-H441. The series is described as follows: Proliferation inhibition, non-small cell lung cancer cell line NCI-H441. The format is cell-based. The conditions noted are these: Homo sapiens, NCI-H441, 72 h. How it is done:
as §4, §5, §6

Another series relates to NCI-H1792. Kind of series: Proliferation inhibition, non-small cell lung cancer cell line NCI-H1792. The format is cell-based. The conditions noted are these: Homo sapiens, NCI-H1792, 72 h. The method, then:
as §4, §5, §6

The test system of a further series is NCI-H1838. The series is described as follows: Proliferation inhibition, non-small cell lung cancer cell line NCI-H1838. Type of series: cell-based. To be noted: Homo sapiens, NCI-H1838, 72 h. The method, then: as §4, §5, §6
In the next series the test system is NCI-H1703. The series is described as follows: Proliferation inhibition, non-small cell lung cancer cell line NCI-H1703. Type of series: cell-based. The conditions noted are these: Homo sapiens, NCI-H1703, 72 h. The method, then: as §4, §5, §6

For orientation: T/C means the result in the treated group divided by that in the control group, in per cent. The TGI is the reduction of tumour growth relative to the control group. What is called IC50 is the concentration that inhibits the measured activity by half. A low value points to inhibition by little substance.

As to `CC(=O)c1c(C)c2cnc(Nc3ccc(N4CCNCC4)cn3)nc2n(C2CCCC2)c1=O` [Palbociclib, reference compound], in the series on NCI-H1975 xenograft (16 days after administration), the T/C stood at 66%; the TGI came out at 34%; the “Tumor relative volume (x ± S)” value worked out at 7.7 ± 1.0; the “Tumor volume (x ± S)” value was 1469 mm^3 and 1469 ± 146 mm^3. For the same molecule, the Body weight change entry in the series on NCI-H1975 xenograft (Day 20 of treatment) was “slight decrease in body weight”. In series [1], the “Day 21 Tumor Volume” value is 1417.98 ± 121.86 mm^3, the “Relative Average Tumor Volume” value is reported as 9.58, the “T/C (relative tumor growth rate)” value is 66.01% and the “TGI (relative tumor inhibition rate)” value is reported as 33.99%.

Consider `CCN1CCN(Cc2ccc(Nc3ncc(F)c(-c4cc(F)c5nc(C)n(C(C)C)c5c4)n3)nc2)CC1` [Abemaciclib, reference compound], for which the IC50 was determined as 54 nM in the series on SNU-761; 86 ± 22.9 nM with U118MG cells; 44 nM in the series with NCI-H358; 40 nM in the series with NCI-H441; 23 nM in the series on NCI-H1792; 90.2 nM in the series on NCI-H1838. In the series on NCI-H1703, this molecule displayed an IC50 of 93 nM. Besides, in the series on NCI-H1975 xenograft (16 days after administration), the T/C came to 93%. In the series with NCI-H1975 xenograft (16 days after administration), this molecule gave a TGI of 7%. Further, the “Tumor volume (x ± S)” value in the series with NCI-H1975 xenograft (16 days after administration) was 2071 mm^3 and 2071 ± 148 mm^3. Also, the “Day 21 Tumor Volume” value in [1] stood at 1627.31 ± 100.66 mm^3.
